Eight compounds from patent US9108951B2, “Substituted 5,6,7,8-tetrahydro-1,6-naphthyridines as factor XIa inhibitors” (BRISTOL-MYERS SQUIBB COMPANY, priority 2011, dated 2015) can be followed below.

This assay concerns the target purified human Factor XIa (Homo sapiens (Human), UniProt P03951). Briefly: Factor XIa assay (chromogenic substrate hydrolysis, Ki). The class given is biochemical. The settings on record: synthetic substrate S-2366, 50 mM HEPES pH 7.4. As for the experimental part:
The effectiveness of compounds of the present invention as inhibitors of the coagulation factors XIa, VIIa, IXa, Xa, XIIa, plasma kallikrein or thrombin, can be determined using a relevant purified serine protease, respectively, and an appropriate synthetic substrate. The rate of hydrolysis of the chromogenic or fluorogenic substrate by the relevant serine protease was measured both in the absence and presence of compounds of the present invention. […] A decrease in the rate of absorbance or fluorescence change in the presence of inhibitor is indicative of enzyme inhibition. Such methods are known to one skilled in the art. The results of this assay are expressed as the inhibitory constant, Ki.
Values of Ki were determined by allowing the protease to react with the substrate in the presence of the inhibitor. Reactions were allowed to go for periods of 20-180 minutes (depending on the protease) and the velocities (rate of absorbance or fluorescence change versus time) were measured. The following relationships were used to calculate Ki values: (vo−vs)/vs=I/(Ki(1+S/Km)) for a competitive inhibitor with one binding site; or vs/vo=A+((B−A)/1+((IC50/(I)n))); and Ki=IC50/(1+S/Km) for a competitive inhibitor where: […]

Structures can show the parent of a compound that is named as a salt.

A word on the Ki: it is the dissociation constant of the complex between target and ligand, obtained from inhibition or displacement.

Chain of purified human Factor XIa (P03951 388-625): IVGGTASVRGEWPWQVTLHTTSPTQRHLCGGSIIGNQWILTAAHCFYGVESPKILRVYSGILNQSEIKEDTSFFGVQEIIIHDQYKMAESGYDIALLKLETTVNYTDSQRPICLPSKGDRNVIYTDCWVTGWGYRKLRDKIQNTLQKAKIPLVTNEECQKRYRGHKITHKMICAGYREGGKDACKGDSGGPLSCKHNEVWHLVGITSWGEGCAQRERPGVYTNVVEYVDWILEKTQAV
Chain of purified human Factor XIa (P03951 19-387 partner): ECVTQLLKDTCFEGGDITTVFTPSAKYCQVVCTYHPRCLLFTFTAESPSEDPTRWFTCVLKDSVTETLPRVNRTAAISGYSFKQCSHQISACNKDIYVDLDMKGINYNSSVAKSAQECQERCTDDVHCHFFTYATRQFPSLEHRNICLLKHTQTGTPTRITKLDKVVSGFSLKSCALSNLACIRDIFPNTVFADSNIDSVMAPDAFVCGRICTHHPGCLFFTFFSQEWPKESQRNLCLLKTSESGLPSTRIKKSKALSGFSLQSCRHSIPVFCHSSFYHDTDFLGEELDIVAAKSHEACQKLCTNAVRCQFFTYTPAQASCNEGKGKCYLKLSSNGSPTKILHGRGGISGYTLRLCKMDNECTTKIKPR

The compound `O=C(Nc1ccc(C2CCCN2)cc1)[C@@H]1c2ccccc2CCN1C(=O)/C=C/c1cc(Cl)ccc1-n1cnnn1` (stereo partly drawn) [Example 40, (1S)-2-((E)-3-(5-Chloro-2-(1H-tetrazol-1-yl)phenyl)acryloyl)-N-(4-(pyrrolidin-2-yl)phenyl)-1,2,3,4-tetrahydroisoquinoline-1-carboxamide, TFA salt] showed an inhibitory constant (Ki) of 6730 nM.

Compound `CC1(C)CN(C(=O)/C=C/c2cc(Cl)ccc2-n2cnnn2)C(C(=O)Nc2ccc(C(=O)O)cc2)c2c(Br)cccc21` (centres unmarked) [Example 55, (E)-4-(8-bromo-2-(3-(5-chloro-2-(1H-tetrazol-1-yl)phenyl)acryloyl)-4,4-dimethyl-1,2,3,4-tetrahydroisoquinoline-1-carboxamido)benzoic acid] registered a Ki of 172 nM.

`NC(=O)c1ccc(-c2nccc3c2CCN(C(=O)/C=C/c2c(-n4cnnn4)ccc(Cl)c2F)C3C(=O)Nc2ccc3cn[nH]c3c2)cc1` (centres unmarked) [Example 23, (E)-5-(4-Carbamoylphenyl)-2-(3-(3-chloro-2-fluoro-6-(1H-tetrazol-1-yl)phenyl)acryloyl)-N-(1H-indazol-6-yl)-1,2,3,4-tetrahydro-2,6-naphthyridine-1-carboxamide, TFA salt] registered a Ki below 5 nM.

The compound `Cc1[nH]nc2c1C(C(=O)Nc1ccc(C(=O)O)cc1)N(C(=O)/C=C/c1c(-n3cnnn3)ccc(Cl)c1F)CC2` (centres unmarked) [Example 77, (E)-4-(5-(3-(3-chloro-2-fluoro-6-(1H-tetrazol-1-yl)phenyl)acryloyl)-3-methyl-4,5,6,7-tetrahydro-2H-pyrazolo[4,3-c]pyridine-4-carboxamido)benzoic acid, TFA salt] showed a Ki of 5.02 nM.

Consider `CCc1nn(C)c2c1C(C(=O)Nc1ccc(C(=O)O)cc1)N(C(=O)/C=C/c1cc(Cl)ccc1-n1cnnn1)CC2` (centres unmarked) [Example 65, (E)-4-(5-(3-(5-Chloro-2-(1H-tetrazol-1-yl)phenyl)acryloyl)-3-ethyl-1-methyl-4,5,6,7-tetrahydro-1H-pyrazolo[4,3-c]pyridine-4-carboxamido)benzoic acid, TFA salt], for which the Ki came to 23.3 nM.

Compound `Cc1[nH]nc2c1C(C(=O)Nc1ccc(C(=O)OC(C)(C)C)cc1)N(C(=O)/C=C/c1c(-n3cnnn3)ccc(Cl)c1F)CC2` (centres unmarked) [Example 76, (E)-tert-butyl 4-(5-(3-(3-chloro-2-fluoro-6-(1H-tetrazol-1-yl)phenyl)acryloyl)-3-methyl-4,5,6,7-tetrahydro-2H-pyrazolo[4,3-c]pyridine-4-carboxamido)benzoate, TFA salt] gave a Ki of 566 nM.

In turn, `O=C(O)c1ccc(NC(=O)C2c3ccnc(N4CCOCC4)c3CCN2C(=O)/C=C/c2c(-n3cnnn3)ccc(Cl)c2F)cc1` (centres unmarked) [Example 28, (E)-4-(2-(3-(3-Chloro-2-fluoro-6-(1H-tetrazol-1-yl)phenyl)acryloyl)-5-morpholino-1,2,3,4-tetrahydro-2,6-naphthyridine-1-carboxamido)benzoic acid, TFA Salt] registered a Ki below 5 nM.

For the compound `O=C(O)c1ccc(NC(=O)[C@@H]2c3ccccc3CCN2C(=O)C#Cc2cc(Cl)ccc2-n2cnnn2)cc1` [Example 48, (S)-4-(2-(3-(5-Chloro-2-(1H-tetrazol-1-yl)phenyl)propioloyl)-1,2,3,4-tetrahydroisoquinoline-1-carboxamido)benzoic acid], the Ki came to 7.08 nM.
